What was measured:
Test in all cases: relative viability (nuclei count vs DMSO), 5 days (fraction); higher = more cells survive
[1] = compound: C1CNCCC1C2=CC(=NN2)C3=CC=NC=C3 + Cc1cc(Nc2cc(N3CCN(C)CC3)nc(Sc3ccc(NC(=O)C4CC4)cc3)n2)n[nH]1 [Tozasertib] (partner 0.1 µM)
Procedure, shortened: (§1)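 Medians of duplicate plates are given as relative viability. That measure is the nuclei count in treated wells divided by the count in vehicle wells. Counts were taken on 4× images of lung cancer cell lines in 1536-well plates, 5 days after pin-tool dosing the day after seeding with one drug alone or a fixed anchor-drug dose plus five library-drug doses (not always all listed) in √10 steps.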

[2] = compound: C[C@@H](N)c1ccc(C(=O)Nc2ccnc3[nH]ccc23)cc1 + CCNC(=O)c1noc(-c2cc(C(C)C)c(O)cc2O)c1-c1ccc(CN2CCOCC2)cc1 [Luminespib] (partner 0.01 µM)
Procedure, shortened: as §1

[3] = compound: C[C@@H](N)c1ccc(C(=O)Nc2ccnc3[nH]ccc23)cc1 + Cc1cc(Nc2cc(N3CCN(C)CC3)nc(Sc3ccc(NC(=O)C4CC4)cc3)n2)n[nH]1 [Tozasertib] (partner 0.1 µM)
Procedure, shortened: as §1

Tanzisertib + AZD7762 = compound: O[C@H]1CC[C@H](Nc2ncc3nc(Nc4c(F)cc(F)cc4F)n([C@H]4CCOC4)c3n2)CC1 [Tanzisertib] + NC(=O)Nc1cc(-c2cccc(F)c2)sc1C(=O)N[C@H]1CCCNC1 [AZD7762] (partner 0.2 µM)
Procedure, shortened: as §1

| Cell Line | relative viability ([1]; first compound 0.08 µM) | relative viability ([1]; first compound 0.8 µM) | relative viability ([1]; first compound 2.53 µM) | relative viability ([1]; first compound 8 µM) | relative viability ([2]; first compound 0.04 µM) | relative viability ([2]; first compound 0.1265 µM) | relative viability ([2]; first compound 0.4 µM) | relative viability ([2]; first compound 1.265 µM) | relative viability ([2]; first compound 4 µM) | relative viability ([3]; first compound 0.04 µM) | relative viability ([3]; first compound 0.1265 µM) | relative viability ([3]; first compound 0.4 µM) | relative viability ([3]; first compound 1.265 µM) | relative viability ([3]; first compound 4 µM) | relative viability (Tanzisertib + AZD7762; first compound 0.08 µM) | relative viability (Tanzisertib + AZD7762; first compound 0.253 µM) | relative viability (Tanzisertib + AZD7762; first compound 0.8 µM) | relative viability (Tanzisertib + AZD7762; first compound 2.53 µM) | relative viability (Tanzisertib + AZD7762; first compound 8 µM) |
| --- | --- | --- | --- | --- | --- | --- | --- | --- | --- | --- | --- | --- | --- | --- | --- | --- | --- | --- | --- |
| NCI-H460 | 0.474 | 0.381 | 0.617 | 0.449 | 0.04 | 0.0445 | 0.0267 | 0.0276 | 0.0227 | 0.606 | 0.405 | 0.571 | 0.392 | 0.771 | 0.661 | 0.627 | 0.591 | 0.63 | 0.628 |
| NCI-H1755 | 0.583 |  | 0.643 | 0.526 | 0.384 | 0.426 | 0.69 | 0.397 | 0.26 | 0.568 | 0.602 | 0.725 | 0.581 | 0.559 | 0.462 | 0.474 | 0.441 | 0.399 | 0.384 |
| NCI-H358 | 0.106 | 0.101 | 0.106 | 0.0938 | 0.231 | 0.213 | 0.348 | 0.237 | 0.364 | 0.111 | 0.109 | 0.0968 | 0.105 | 0.0998 | 0.468 | 0.494 | 0.695 | 0.453 | 0.387 |
| NCI-H1734 | 0.27 | 0.279 | 0.269 | 0.271 | 0.2 | 0.209 | 0.193 | 0.187 | 0.195 | 0.263 | 0.247 | 0.259 | 0.213 | 0.202 | 0.596 | 0.532 | 0.558 | 0.534 | 0.526 |
| EPLC-272H | 0.357 | 0.221 | 0.367 | 0.314 | 0.402 | 0.602 | 0.188 | 0.491 | 0.405 | 0.304 | 0.322 | 0.531 | 0.287 | 0.188 | 0.352 | 0.324 | 0.175 | 0.175 | 0.176 |
| NCI-H2126 | 0.674 | 0.974 | 0.916 | 0.858 | 1 | 0.951 | 1.01 | 1.01 | 0.806 | 0.92 | 0.885 | 0.877 | 0.921 | 0.854 | 1.07 | 1.03 | 1.04 | 1.05 | 1.05 |

Reference: the supplement of paper PMC10307832
